{
  "source": "patent US5462933A",
  "about": "“Modified bile acid conjugates, and their use as pharmaceuticals” (Hoechst Aktiengesellschaft, priority 1989, dated 1995)",
  "biological_target": "T1, Na+-dependent bile acid transport system (Oryctolagus cuniculus, UniProt Q28727)",
  "T1 construct": "brush-border membrane vesicles from the ileum of rabbits; from tissue; host or cells: terminal ileum of male New Zealand rabbits, brush-border membrane vesicles",
  "T1 sequence (Q28727 1-347)": "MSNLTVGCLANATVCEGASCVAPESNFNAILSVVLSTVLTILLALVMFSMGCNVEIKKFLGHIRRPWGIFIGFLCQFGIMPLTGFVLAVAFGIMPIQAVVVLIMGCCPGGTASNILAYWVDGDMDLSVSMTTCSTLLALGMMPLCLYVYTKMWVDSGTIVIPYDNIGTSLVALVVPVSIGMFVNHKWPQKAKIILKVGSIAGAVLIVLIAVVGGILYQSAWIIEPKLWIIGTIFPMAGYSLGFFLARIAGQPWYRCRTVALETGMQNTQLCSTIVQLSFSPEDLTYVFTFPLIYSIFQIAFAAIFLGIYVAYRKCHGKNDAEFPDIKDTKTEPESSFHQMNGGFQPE",
  "assay": "Inhibition of Na+-dependent [3H]taurocholate absorption into brush-border membrane vesicles of the ileum",
  "format": "biochemical, rabbit",
  "experimental": "The preparation of brush-border membrane vesicles from the intestinal cells of the small intestine was carried out using the so-called Mg^2+ precipitation method. Male New Zealand rabbits (2-2.5 kg body weight) were sacrificed by intravenous injection of 0.5 ml of T-61^R. The small intestine was removed and rinsed with ice-cold physiological saline solution. The terminal 3/10 of the small intestine (measured in the oral-rectal direction, i.e. the terminal ileum, which contains the active Na^+ -dependent bile acid transport system) were used for preparation of the brush-border membrane vesicles. The intestines were frozen at -80° C. under nitrogen in plastic bags. The frozen intestines were thawed in a water bath at 30° C. in order to prepare the membrane vesicles. The mucosa was scraped off and suspended in 60 ml of ice-cold 12 mM trys/HCl buffer (pH 7.1)/300 mM mannitol, 5 mM EGTA/10 mg/l of phenylmethylsulfonyl fluoride/1 mg/l of soybean trypsin inhibitor (32 U/mg)/0.5 mg/l of bovine lung trypsin inhibitor (193 U/mg)/5 mg/l of bacitracin. After diluting to 300 ml with ice-cold distilled water, the suspension was homogenized with ice-cooling for 3 minutes at 75% of maximum power using an Ultraturrax (18 rod, IKA Werk Staufen, Federal Republic of Germany). After addition of 3 ml of 1M MgCl2 solution (final concentration 10 mM), the homogenate was allowed to stand at 0° C. for exactly 1 minute. As a result of addition of Mg^2+, the cell membranes aggregate and precipitate with the exception of the brush-border membranes. After centrifugation at 3,000×g (5,000 rpm, SS-34 rotor) for 15 minutes, the precipitate is discarded and the supernatant which contains the brush-border membranes is centrifuged at 26,700×g (15,000 rpm, SS-34 rotor) for 30 minutes. The supernatant was discarded, and the precipitate was rehomogenized in 60 ml of 12 mM tris/HCl buffer (pH 7.1)/60 mM mannitol, 5 mM EGTA using a Potter Elvejhem homogenizer (Braun Melsungen, 900 rpm, 10 strokes). After addition of 0.1 ml of 1M MgCl2 solution and an incubation time of 15 minutes at 0° C., the mixture was again centrifuged at 3,000×g for 15 minutes. The supernatant was then again centrifuged at […] (15,000 rpm, SS-34 rotor) for 30 minutes. The precipitate was taken up in 30 ml of 10 mM tris/hepes buffer (pH 7.4)/300 mM mannitol and homogeneously resuspended by 20 strokes in a Potter Elvejhem homogenizer at 1,000 rpm. After centrifugation at 48,000×g (20,000 rpm, SS-34 rotor) for 30 minutes, the precipitate was taken up in 0.5 to 2 ml of tris/hepes buffer (pH 7.4)/280 mM mannitol (final concentration 20 mg/ml) and resuspended with the aid of a tuberculin syringe using a 27 gauge needle. The vesicles were either used immediately after preparation for transport investigations or stored at -196° C. in liquid nitrogen in 4 mg portions.\nThe absorption of substrates into brush-border membrane vesicles was determined by means of the so-called membrane filtration technique. 10 μl of the vesicle suspension (100 μg of protein) were pipetted on the wall of a polystyrene incubation tube (11×70 mm) as a drop which contained the incubation medium together with the corresponding ligands (90 μl ). […] The incubation medium was filtered through a polyvinylidene fluoride membrane filter (SYHV LO 4NS, 0.45 μm, 4 mm .phi., Millipore, Eschborn, Federal Republic of Germany). The transport measurement was begun by mixing the vesicles with the incubation medium. […] After the desired incubation time (customarily 1 min), the transport was stopped by addition of 1 ml of ice-cold stop solution (10 mM tris/hepes, (pH 7.4)/150 mM KCl). The resulting mixture was immediately filtered off with suction in a vacuum of 25 to 35 mbar through a membrane filter made of cellulose nitrate (ME 25, 0.45 μm, 25 mm diameter, Schleicher & Schuell, Dassell, Federal Republic of Germany). The filter was subsequently washed with 5 ml of ice-cold Stop solution.",
  "key": {"[1]": {"details": "Na+-dependent transport component, 50 μM taurocholate"}},
  "data": [
    {"compound": "C[C@H](CCC(=O)NCCS(=O)(=O)O)[C@H]1CC[C@H]2[C@@H]3[C@H](O)C[C@@H]4C[C@@H](OCCNC(=O)CCCc5ccc(N(CCCl)CCCl)cc5)CC[C@]4(C)[C@H]3C[C@H](O)[C@]12C", "note": "[Example 67]", "values": [
      {"measurement": "IC50", "value": 47.5, "unit": "µM"},
      {"measurement": "IC25", "setting": "[1]", "value": 24, "unit": "µM"},
      {"measurement": "IC75", "setting": "[1]", "value": 270, "unit": "µM"}
    ]}
  ]
}
